US9708336B2, “Metallo-beta-lactamase inhibitors” (priority 2014, dated 2017)
pIC50: −log10 of the molar value. Like-named read-outs stand apart in the source and are kept apart here.

Tests used:
[1] = biological target: NDM-1 (Klebsiella pneumoniae, UniProt C7C422); test: biochemical; format: biochemical; details: fluorescence assay with CCF2-FA substrate; read-out: NDM-1 IC50
[2] = biological target: IMP-1 (Serratia marcescens, UniProt P52699); test: biochemical; format: biochemical; details: fluorescence assay with CCF2-FA substrate; read-out: IMP-1 IC50
IMP-1, sequence (P52699 whole entry, looked up): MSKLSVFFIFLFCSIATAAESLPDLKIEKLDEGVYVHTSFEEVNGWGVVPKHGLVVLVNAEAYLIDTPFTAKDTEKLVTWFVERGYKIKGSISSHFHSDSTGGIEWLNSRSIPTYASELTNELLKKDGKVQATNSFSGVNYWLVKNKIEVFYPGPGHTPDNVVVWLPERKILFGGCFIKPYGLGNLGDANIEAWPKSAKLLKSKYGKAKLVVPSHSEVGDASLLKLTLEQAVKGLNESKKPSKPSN

[3] = biological target: VIM-1 (Pseudomonas aeruginosa (strain ATCC 15692 / DSM 22644 / CIP 104116 / JCM 14847 / LMG 12228 / 1C / PRS 101 / PAO1), UniProt A0A0F7KYQ8); test: Enzyme activity: determination of IC50, fluorescence assay with CCF2-FA substrate (VIM-1); format: biochemical
[4] = system: Escherichia coli expressing NDM-1 (CLB30005); test: Antibiotic potentiation activity: synergistic concentration (MITC95) with imipenem, OD600 growth; format: cell-based; details: concentration giving 95% inhibition of bacterial growth
Procedure, shortened: (§1)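 Inoculum: saline suspension of overnight colonies, 1:100 into 1.1× CAMHB. Imipenem 4 μg/ml final (alt. 1 μg/ml) + compound; 35 °C, 22–24 h; absorbance read-out.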

[5] = system: Klebsiella pneumoniae expressing VIM-1 (IHMA599644); test: as above; format: cell-based; details: concentration giving 95% inhibition of bacterial growth
Procedure, shortened: as §1

[6] = system: Serratia marcescens expressing IMP-1 (CL5741); test: as above; format: cell-based; details: concentration giving 95% inhibition of bacterial growth
Procedure, shortened: as §1

[7] = fluorescence assay with CCF2-FA substrate, read-out: VIM-1 IC50
[8] = VIM-1 IC50, fluorescence assay with CCF2-FA substrate

NDM-1, sequence (C7C422 whole entry, looked up, species assumed): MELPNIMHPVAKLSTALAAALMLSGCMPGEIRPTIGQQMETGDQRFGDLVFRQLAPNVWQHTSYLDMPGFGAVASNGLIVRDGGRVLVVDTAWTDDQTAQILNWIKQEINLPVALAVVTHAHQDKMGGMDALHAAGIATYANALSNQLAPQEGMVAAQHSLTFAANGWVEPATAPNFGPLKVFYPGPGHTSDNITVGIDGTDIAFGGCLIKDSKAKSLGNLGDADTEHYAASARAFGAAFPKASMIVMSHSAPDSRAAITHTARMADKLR

Structure (SMILES) | pIC50 [1] | pIC50 [2] | pIC50 [3, 7] | Escherichia coli expressing NDM-1 (CLB 30005) MITC95 [4] [µM] | Klebsiella pneumoniae expressing VIM-1 (IHMA 599644) MITC95 [5] [µM] | Serratia marcescens expressing IMP-1 (CL5741) MITC95 [6] [µM] | pIC50 [3, 8]
Cc1nccn1-c1nc(-c2cccc(S(N)(=O)=O)c2-c2nn[nH]n2)cs1 [Example 102, 3-[2-(2-methyl-1H-imidazol-1-yl)-1,3-thiazol-4-yl]-2-(2H-tetrazol-5-yl)benzenesulfonamide] | 6.89 | 6.76 | 6.28 | 9.375 | >200 | 53.13 | 
NS(=O)(=O)c1cccc(-c2c[nH]c3nccnc23)c1-c1nn[nH]n1 [Example 104, 3-(5H-pyrrolo[2,3-b]pyrazin-7-yl)-2-(2H-tetrazol-5-yl)benzenesulfonamide] | 7.78 | 6.54 | 6.97 | 0.9766 | 25 | 15.63 | 
NS(=O)(=O)c1cccc(-c2cnn3ncccc23)c1-c1nn[nH]n1 [Example 105, 3-pyrazolo[1,5-b]pyridazin-3-yl-2-(2H-tetrazol-5-yl)benzenesulfonamide] | 7.84 | 6.43 | 7.15 | 0.9766 | 18.75 | 31.25 | 
CC(C)n1nccc1-c1cccc(S(N)(=O)=O)c1-c1nn[nH]n1 [Example 106, 3-[1-(1-methylethyl)-1H-pyrazol-5-yl]-2-(2H-tetrazol-5-yl)benzenesulfonamide] | 8.02 | 5.74 | 6.02 | 3.906 | 200 | 62.5 | 
NS(=O)(=O)c1cccc(-c2cnn3c2CCCC3)c1-c1nn[nH]n1 [Example 107, 3-(4,5,6,7-tetrahydropyrazolo[1,5-a]pyridin-3-yl)-2-(2H-tetrazol-5-yl)benzenesulfonamide] | 8.00 | 6.44 | 6.71 | 3.906 | 200 | 15.63 | 
Cc1sccc1-c1cccc(S(N)(=O)=O)c1-c1nn[nH]n1 [Example 108, 3-(2-methylthiophen-3-yl)-2-(2H-tetrazol-5-yl)benzenesulfonamide] | 8.24 | 6.59 |  | 1.172 | 37.5 | 18.75 | 7.35
NS(=O)(=O)c1cccc(-c2cn(S(=O)(=O)c3ccccc3)c3ncccc23)c1-c1nn[nH]n1 [Example 109, 3-[1-(phensulfonyl)-1H-pyrrolo[2,3-b]pyridin-3-yl]-2-(2H-tetrazol-5-yl)benzenesulfonamide] | 8.66 | 7.41 |  | 12.5 | 18.75 | 12.89 | 9.20
NS(=O)(=O)c1cccc(C#CCC2CNCCO2)c1-c1nn[nH]n1 (stereo not drawn) [Example 145, 3-(3-morpholin-2-ylprop-1-yn-1-yl)-2-(2H-tetrazol-5-yl)benzenesulfonamide] | 6.72 | 5.62 | 5.19 | 0.7813 | >200 | 75 | 
NS(=O)(=O)c1cccc(C#Cc2cccnc2)c1-c1nn[nH]n1 [Example 147, 3-(pyridin-3-ylethynyl)-2-(2H-tetrazol-5-yl)benzenesulfonamide] | 7.78 | 6.99 | 5.96 | 3.125 | >200 | 18.75 | 
NS(=O)(=O)c1cccc(C#CCN2CCS(=O)(=O)CC2)c1-c1nn[nH]n1 [Example 148, 3-[3-(1,1-dioxidothiomorpholin-4-yl)prop-1-yn-1-yl]-2-(2H-tetrazol-5-yl)benzenesulfonamide] | 6.88 | 6.26 | 5.51 | 6.25 | >200 | 50 | 
CS(=O)(=O)N1CCC(c2cccc(S(N)(=O)=O)c2-c2nn[nH]n2)CC1 [Example 172, 3-(1-(methylsulfonyl)piperidin-4-yl)-2-(2H-tetrazol-5-yl)benzenesulfonamide] | 7.78 | 6.14 | 6.38 | 4.688 | 100 | 18.75 | 
CCOC(=O)N1CCC(c2cccc(S(N)(=O)=O)c2-c2nn[nH]n2)CC1 [Example 173, ethyl 4-(3-sulfamoyl-2-(2H-tetrazol-5-yl)phenyl)piperidine-1-carboxylate] | 8.36 | 6.83 |  | 4.688 | >200 | 6.25 | 7.07
CCNC(=O)N1CCC(c2cccc(S(N)(=O)=O)c2-c2nn[nH]n2)CC1 [Example 174, N-ethyl-4-(3-sulfamoyl-2-(2H-tetrazol-5-yl)phenyl)piperidine-1-carboxamide] | 8.34 | 6.39 | 6.58 | 2.344 | 100 | 12.5 | 
NS(=O)(=O)c1cccc(C2CCCNC2)c1-c1nn[nH]n1 (stereo not drawn) [Example 175, 3-(piperidin-3-yl)-2-(2H-tetrazol-5-yl)benzenesulfonamide] | 6.26 | 4.91 | 5.51 | 0.7813 | 75 | 37.5 | 
NS(=O)(=O)c1cccc(C2CCCN(C(=O)C3CC3)C2)c1-c1nn[nH]n1 (stereo not drawn) [Example 177, 3-(1-(cyclopropanecarbonyl)piperidin-3-yl)-2-(2H-tetrazol-5-yl)benzenesulfonamide] | 7.89 | 6.18 | 6.13 | 6.25 | >200 | 37.5 | 
COC(=O)c1ccc(-c2ccnc(S(N)(=O)=O)c2-c2nnn[nH]2)cc1 [Example 182, Methyl 4-(2-sulfamoyl-3-(1H-tetrazol-5-yl)pyridin-4-yl)benzoate] | 7.49 | 6.46 |  | 4.688 | 200 | 100 | 7.04
NS(=O)(=O)c1nccc(-c2ccc(C(=O)O)cc2)c1-c1nnn[nH]1 [Example 183, 4-(2-Sulfamoyl-3-(1H-tetrazol-5-yl)pyridin-4-yl)benzoic acid] | 7.94 | 6.47 |  | 4.688 | 75 | 50 | 6.76
NC(=O)c1ccc(-c2ccnc(S(N)(=O)=O)c2-c2nnn[nH]2)cc1 [Example 184, 4-(2-Sulfamoyl-3-(1H-tetrazol-5-yl)pyridin-4-yl)benzamide] | 7.17 | 6.22 | 6.79 | 0.5859 | 25 | 37.5 | 
NS(=O)(=O)c1nccc(-c2ccc(C(=O)NC3CC3)cc2)c1-c1nnn[nH]1 [Example 185, N-Cyclopropyl-4-(2-sulfamoyl-3-(1H-tetrazol-5-yl)pyridin-4-yl)benzamide] | 6.87 | 5.83 | 5.69 | 2.344 | >200 | 75 | 
NS(=O)(=O)c1nccc(-c2ccc(C3CCOCC3)cc2)c1-c1nnn[nH]1 [Example 187, 4-(4-(Tetrahydro-2H-pyran-4-yl)phenyl)-3-(1H-tetrazol-5-yl)pyridine-2-sulfonamide] | 8.55 | 7.54 | 6.83 | 15.63 | >200 | 25 | 
NS(=O)(=O)c1ccnc(-c2ccc(CO)cc2)c1-c1nnn[nH]1 [Example 188, 2-(4-(Hydroxymethyl)phenyl)-3-(1H-tetrazol-5-yl)pyridine-4-sulfonamide] | 7.44 | 6.11 | 5.38 | 2.344 | >200 | 37.5 | 
